Patent US8685394B2, “Combination of anti-CTLA4 antibody with diverse therapeutic regimens for the synergistic treatment of proliferative diseases” (Bristol-Myers Squibb Company, priority 2008, dated 2014)
“Also recorded” adds a separate entry of the source. Like-named read-outs stand apart in the source and are kept apart here.

How the values were obtained:
M109 lung carcinoma [1] = experiment: M109 lung carcinoma subcutaneous tumor model; assay type: in vivo, murine; conditions: for CR / T-C (1000 mm^3) / PR / % TGI (Average): M109 s.c.; for CR: complete regression = non-palpable tumor for ≧2 assessments; for T-C (1000 mm^3): number of days to reach target tumor size 1000 mm^3, doses and schedules of Table 1; for PR: partial regression = 50% reduction in tumor volume for ≧2 assessments; for % TGI (Average): percent tumor growth inhibition, each treatment at dose (mg/kg) and schedule (study days) of Table 1
Experimental: (§1) All compounds were tested at their optimal dose and schedule. When used in combination, CTLA-4 mAb was initiated one day after the first dose of chemotherapy. Percent tumor growth inhibition and number of days to reach target tumor size were used to evaluate efficacy. Antitumor activity was scored as: complete regression (CR; non-palpable tumor for ≧2 assessments) or partial regression (PR; 50% reduction in tumor volume for ≧2 assessments).

CT26 colon carcinoma [2] = experiment: CT26 colon carcinoma subcutaneous tumor model; assay type: in vivo, murine; conditions: for % TGI (Average) / CR / PR / T-C (1000 mm^3): CT26 s.c.; for % TGI (Average): doses and schedules of Table 4; for CR: mice with complete regression / mice in group; for PR: mice with partial regression / mice in group; for T-C (1000 mm^3): number of days to reach target tumor size 1000 mm^3
Experimental: as §1

tumor models = experiment: Antitumor activity in murine tumor models, model not stated (FIG. 6, 8, 9, 10; summary); assay type: in vivo; conditions: concurrent treatment
SA1N fibrosarcoma [3] = experiment: SA1N fibrosarcoma subcutaneous tumor model; assay type: in vivo, murine; conditions: SA1N s.c.; for % TGI (Average D 20-48): average of days 20-48, doses and schedules of Table 3; for CR: mice with complete regression / mice in group; for PR: mice with partial regression / mice in group; for T-C (1000 mm^3): number of days to reach target tumor size 1000 mm^3
Experimental: as §1

M109 lung metastasis = experiment: M109 lung carcinoma model of experimental pulmonary metastasis; assay type: in vivo, murine; conditions: doses and schedules of Table 2, control vehicle 32
[4] = tested on: immune cells in tumor-draining lymph nodes; experiment: Composition of immune cells in tumor-draining lymph nodes (FIG. 13); assay type: in vivo
in vivo cytotoxicity = conditions: FIG. 12
T-cell function = conditions: in vitro; concentrations of 10-50 nM; inhibition of cytokine secretion and degranulation; Weischel et al., 2008; cited from earlier work
STAT3 = conditions: Yu, H. et al., 2007; cited from earlier work
T-cell activation = conditions: Schade et al., 2007; cited from earlier work
SA1N fibrosarcoma [5] = conditions: dasatinib 30 mg/kg daily or 5 days on/2 days off, concurrent CTLA-4 mAb
M109 lung carcinoma [6] = conditions: dasatinib with CTLA-4 mAb
CT26 colon carcinoma [7] = conditions: dasatinib 30 mg/kg, concurrent CTLA-4 mAb
P815 mastocytoma = conditions: SPRYCEL 30 mg/kg P.O., anti-CTLA-4 mAb IP days 10, 14, 18
[8] = CT26 colon carcinoma, established tumors

Compound	CR (M109 lung carcinoma [1])	T-C (1000 mm^3) (M109 lung carcinoma [1])	PR (M109 lung carcinoma [1])	% TGI (Average) (M109 lung carcinoma [1]) [%]	antitumor activity / combination effect, in words (M109 lung carcinoma [1]; M109 subcutaneous tumor model)	antitumor activity / combination effect, in words (CT26 colon carcinoma [2]; [8])	% TGI (Average) (CT26 colon carcinoma [2]) [%]	CR (CT26 colon carcinoma [2])	PR (CT26 colon carcinoma [2])	T-C (1000 mm^3) (CT26 colon carcinoma [2])	CTLA-4 blockade activity under concurrent chemotherapy (tumor models)	% TGI (Average D 20-48) (SA1N fibrosarcoma [3]) [%]	CR (SA1N fibrosarcoma [3])	PR (SA1N fibrosarcoma [3])	T-C (1000 mm^3) (SA1N fibrosarcoma [3])	Median Survival Time (M109 lung metastasis) [days]	other results
4′-Demethylepipodophyllotoxin 9-[4,6-O-(R)-ethylidene-β-D-glucopyranoside], 4′-(dihydrogen phosphate) [Etoposide]	0	9	0	59	modestly sensitive	effective as single agents	66	1/8	0/8	11	not abolished	88	0/8	1/8	14	34	–
Cl.Nc1ccn([C@@H]2O[C@H](CO)[C@@H](O)C2(F)F)c(=O)n1 (single isomer, unassigned) [Gemcitabine, 2′-deoxy-2′,2′-difluorocytidine monohydrochloride (β-isomer)]	0	2.2	0	32	modestly sensitive; also recorded: did not produce significant antitumor activity	effective as single agents	102	2/8	0/8	12	not abolished	68	0/8	0/8	11	42	antitumor activity / combination effect, in words (M109 lung carcinoma [1]; M109 subcutaneous tumor model, listed as Gem): modestly sensitive; also recorded: did not produce significant M109 antitumor activity; composition of immune cells in tumor-draining lymph nodes [4]: modulates the composition of immune cells; in vivo cytotoxicity (in vivo cytotoxicity): promote in vivo cytotoxicity
CC(=O)O[C@H]1C(=O)[C@@]2(C)[C@H]([C@H](OC(=O)c3ccccc3)[C@]3(O)C[C@H](OC(=O)[C@H](O)[C@@H](NC(=O)c4ccccc4)c4ccccc4)C(C)=C1C3(C)C)[C@]1(OC(C)=O)CO[C@@H]1C[C@@H]2O [Paclitaxel, 5beta,20-Epoxy-1,2alpha,4,7beta,10beta,13alpha-hexahydroxytax-11-en-9-one 4,10-diacetate 2-benzoate 13-ester with (2R,3S)-N-benzoyl-3-phenylisoserine]	0	5	0	45	–	–	0	0/8	0/8	0	not abolished	65	0/8	0/8	13	38	antitumor activity / combination effect, in words (M109 lung carcinoma [1]; mouse, in vivo, sc): modestly sensitive; antitumor activity / combination effect, in words (CT26 colon carcinoma [2]; mouse, in vivo): ineffective
Cc1nc(Nc2ncc(C(=O)Nc3c(C)cccc3Cl)s2)cc(N2CCN(CCO)CC2)n1 [dasatinib, N-(2-chloro-6-methylphenyl)-2-[[6-[4-(2-hydroxyethyl)-1-piperazinyl]-2-methyl-4-pyrimidinyl]amino]-5-thiazolecarboxamide]	–	–	–	–	–	–	–	–	–	–	–	–	–	–	–	–	effect on T-cell function (T-cell function): inhibits T-cell function; inhibition of STAT3 (STAT3): potent inhibition of STAT3; effect on T-cell activation (T-cell activation): blockade of T-cell activation; antitumor activity / combination effect, in words (SA1N fibrosarcoma [5]): modest antitumor activity; antitumor activity / combination effect, in words (M109 lung carcinoma [6]): minimal activity; antitumor activity / combination effect, in words (CT26 colon carcinoma [7]): minimal activity; antitumor activity / combination effect, in words (P815 mastocytoma): modest antitumor activity
